Test results published in article PMC4435638, “Phase I trial of volasertib, a Polo-like kinase inhibitor, plus platinum agents in solid tumors: safety, pharmacokinetics and activity” (Investigational New Drugs, 2015).
Like-named read-outs stand apart in the source and are kept apart here.

Experiments:
[1] = system: in vitro and murine xenograft models; conditions: BI 2536 combined with cisplatin, cited from earlier work
[2] = Plasma pharmacokinetics of volasertib and CD 10899 (HPLC-MS/MS); type: in vivo, human; conditions: for clearance / Vd / half-life: human, intravenous; for clearance / Vd / half-life / AUC0-∞,norm, gMean / Cmax,norm, gMean: plasma; for clearance / Vd / half-life / AUC0-∞,norm, gMean: n = 28; for clearance: read-out: CL (total clearance), gMean; for Vd: read-out: Vss (apparent volume of distribution at steady state), gMean; for half-life: read-out: t1/2 (terminal half-life), gMean (converted)
Method: Blood was collected at specified time points during the first and second cycles of each treatment schedule for pharmacokinetic analyses to determine the plasma concentration of volasertib and/or total platinum. Plasma concentrations in cycle 1 were determined before the start of platinum infusions (–1 hour 35 minutes relative to the start of the volasertib infusion), shortly before the end of platinum infusion (–30 minutes), during volasertib infusion (1 hour), immediately before the end of volasertib infusion (2 hours), and at 3, 8, 24, 48, 168, and 336 hours after the start of volasertib infusion. The plasma concentrations in cycle 2 were determined before the start of platinum infusions (–1 hour 35 minutes), shortly before end of platinum infusion (–30 minutes), and immediately before the end of volasertib infusion (2 hours). Plasma concentrations of both volasertib and CD 10899, the predominant circulating hydroxylated metabolite of volasertib previously identified in early clinical studies of volasertib metabolism in cancer patients, were determined simultaneously by validated high performance liquid chromatography-tandem mass spectrometry (HPLC-MS/MS) assay using [D3]volasertib and [D3]CD 10899 as internal standards. The samples were subjected to solid-phase extraction in a 96-well plate format. Chromatography was achieved on an analytical reversed-phase HPLC column with gradient elution. The substances were detected and quantified by HPLC-MS/MS using electrospray ionization in the positive ion mode. Assay performance during the study was assessed by back-calculation of calibration standards, tabulation of the standard curve fit function parameters and measurement of quality control samples. […] Samples were diluted and acidified prior to analysis and were introduced into the ICP-MS system without further sample preparation. The ions were separated and detected in the mass spectrometer and the peak areas of platinum and lutetium were determined.

[3] = system: unrelated kinases (>50 other kinases); set-up: method as in PMID 19383823; conditions: at concentrations up to 10 μM; cited from earlier work
[4] = system: Plk; set-up: method as in PMID 19383823; conditions: cited from earlier work
[5] = system: patients with progressive advanced or metastatic solid tumors; set-up: method as in PMID 22119200; conditions: cited from earlier work
[6] = set-up: method as in PMID 19383823; conditions: preclinical studies, compared with BI 2536; cited from earlier work
[7] = volasertib combined with carboplatin
[8] = volasertib combined with cisplatin

Row | SMILES | Efficacy compared with cisplatin alone ([1]; in vitro and murine xenograft models) | Combination effect versus either therapy alone ([1]; preclinical data) | Influence of cisplatin or carboplatin on the pharmacokinetics or metabolism of volasertib ([2]; co-administration) | clearance [2, 7] [mL/min] | Vd [2, 7] [L] | half-life [2, 7] [h] | clearance [2, 8] [mL/min] | Vd [2, 8] [L] | half-life [2, 8] [h] | AUC0-∞,norm, gMean ([2]; volasertib i.v. infusion combined with carboplatin) | Cmax,norm, gMean ([2]; volasertib i.v. infusion combined with carboplatin, n = 29) | AUC0-∞,norm, gMean ([2]; volasertib i.v. infusion combined with cisplatin) | Cmax,norm, gMean ([2]; volasertib i.v. infusion combined with cisplatin, n = 30) | Inhibition of unrelated kinases (>50 other kinases) [3] | Concentrations at which Plk is targeted (mitotic arrest and apoptosis) [4] | MTD of single-agent volasertib ([5]; phase I study, monotherapy) [mg] | Recommended dose for further clinical investigation ([5]; single agent, based on overall tolerability) [mg] | Patients with confirmed partial response (PR) ([5]; single agent, urothelial cancer, ovarian cancer, or melanoma) | Terminal half-life (t1/2) [6] | Volume of distribution [6]
1 | CC[C@@H]1C(=O)N(C)c2cnc(Nc3ccc(C(=O)NC4CCN(C)CC4)cc3OC)nc2N1C1CCCC1 [BI 2536] | improved efficacy | may confer synergism | – | – | – | – | – | – | – | – | – | – | – | – | – | – | – | – | – | –
2 | CC[C@@H]1C(=O)N(C)c2cnc(Nc3ccc(C(=O)N[C@H]4CC[C@H](N5CCN(CC6CC6)CC5)CC4)cc3OC)nc2N1C(C)C [Volasertib] | – | – | no influence | 865 | 7550 | 166 | 999 | 6780 | 137 | 19.3 [ng · h/mL]/mg | 1.40 [ng/mL]/mg | 16.7 [ng · h/mL]/mg | 1.29 [ng/mL]/mg | does not inhibit | low nanomolar concentrations | 400 | 300 | three patients | long terminal half-life | high volume of distribution
